Reference: patent US10330678B2, “Methods and systems for modulating hormones and related methods, agents and compositions” (California Institute of Technology, priority 2010, dated 2019)
Structures can show the parent of a compound that is named as a salt. Where two headings read alike, the source gives them in different places.

How the values were obtained:
NCI-H716 cells = test: GLP-1 release from endocrine cell line NCI-H716 (GLP-1 RIA kit); format: cell-based
Method: Endocrine cell lines of NCI-H716 cells were used for testing release of GLP-1 triggered by various possible ligands.
NCI-H716 cells were incubated in serum-free DME/F12 media containing vehicle (0.01% DMSO) with a candidate ligand at the indicated concentrations. Secretion active GLP-1 in media was measured with GLP-1 RIA kit (Linco Research, Missouri, USA). The experiments for all groups have been conducted in duplicates.

hTAS2R47 = biological target: T1, hTAS2R47 (Homo sapiens, UniProt P59541); conditions: observed by Pronin et al. [Pronin 2004]; cited from earlier work
T1 sequence (P59541 1-319): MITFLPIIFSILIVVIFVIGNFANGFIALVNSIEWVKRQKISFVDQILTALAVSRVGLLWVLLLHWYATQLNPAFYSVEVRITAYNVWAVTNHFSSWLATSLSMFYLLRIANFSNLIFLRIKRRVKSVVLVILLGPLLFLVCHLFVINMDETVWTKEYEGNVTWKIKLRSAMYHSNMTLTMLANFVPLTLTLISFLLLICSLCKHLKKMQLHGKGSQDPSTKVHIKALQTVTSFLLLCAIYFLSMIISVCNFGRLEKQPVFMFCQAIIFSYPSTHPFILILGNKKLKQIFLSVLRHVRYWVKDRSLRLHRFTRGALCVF

STC-5 cells = conditions: 30 minutes incubation, PTC at various concentrations, versus vehicle (FIGS. 24A, 24B)
Method: In GLP-1 release experiments, selected endocrine cell lines of STC-5 cells or NCI-H716 cells were used for testing release of GLP-1 triggered by various possible ligands. Endocrine cells were incubated in serum-free DME/F12 media containing vehicle (0.01% DMSO) and a candidate ligand of certain concentration and for a certain period of incubation time. After incubation, secretion active GLP-1 in media was measured with GLP-1 RIA kit (Linco Research®, Missouri, USA).
Secretion of active GLP-1 in media was measured with GLP-1 RIA kit (Linco Research, Missouri, USA). The experiments for all groups have been conducted in duplicates.

male Sprague-Dawley rats = system: male Sprague-Dawley rats
Method: The rats were then euthanized 45 min later and removed blood via intracardiac puncture and measured PYY in the blood by a recently modified radioimmunoassay using CURE antibody 9153 (Gift of J Reeve, University of California, Los Angeles.).

bitter taste = conditions: average; cited from earlier work
[1] = NCI-H716 cells, ligand concentration 10 μm, duplicates, control 58.47
[2] = summary of Table 2, versus control

Compound: C=CCSC [Allyl methyl sulfide]
- GLP-1 (pmol/mg protein) (NCI-H716 cells; [1]): 91.547 pmol/mg protein
- effect on release of GLP-1 from NCI-H716 cells (in words) (NCI-H716 cells; [2]): increase the release of GLP-1

Compound: COc1ccc2cc3[n+](cc2c1OC)CCc1cc2c(cc1-3)OCO2 [Berberine chloride]
- GLP-1 (pmol/mg protein) (NCI-H716 cells; [1]): 86.41 pmol/mg protein
- effect on release of GLP-1 from NCI-H716 cells (in words) (NCI-H716 cells; [2]): increase the release of GLP-1

Compound: CCCC(=O)O [Butyrate, reference compound]
- GLP-1 (pmol/mg protein) (NCI-H716 cells; NCI-H716 cells, ligand concentration 2.5 mM, duplicates, control 58.47): 100.77 pmol/mg protein

Compound: O=C1NS(=O)(=O)c2cccc([N+](=O)[O-])c21 [Compound 4NS, 4-Nitro saccharin]
- activation of hTAS2R47 (in words) (hTAS2R47): very weak inverse agonist

Compound: O=C1NS(=O)(=O)c2cc([N+](=O)[O-])ccc21 [Compound 6NS, 6-Nitro saccharin]
- activation of hTAS2R47 (in words) (hTAS2R47): activated the receptor to a lesser extent

Compound: c1c2c(cc3c1OCO3)-c1cc3ccc4c(c3c[n+]1CC2)OCO4 [Coptisine chloride]
- GLP-1 (pmol/mg protein) (NCI-H716 cells; [1]): 121.35 pmol/mg protein
- effect on release of GLP-1 from NCI-H716 cells (in words) (NCI-H716 cells; [2]): increase the release of GLP-1

Compound: COc1cc(/C=C/C(=O)CC(=O)/C=C/c2ccc(O)c(OC)c2)ccc1O [Curcumin]
- GLP-1 (pmol/mg protein) (NCI-H716 cells; [1]): 61.52 pmol/mg protein

Compound: CC[N+](CC)(CC(=O)Nc1c(C)cccc1C)Cc1ccccc1 [Denatonium]
- activation of hTAS2R47 (in words) (hTAS2R47): activated strongest

Compound: O=c1oc2c(O)c(O)cc3c(=O)oc4c(O)c(O)cc1c4c23 [Ellagic acid]
- GLP-1 (pmol/mg protein) (NCI-H716 cells; [1]): 77.25 pmol/mg protein
- effect on release of GLP-1 from NCI-H716 cells (in words) (NCI-H716 cells; [2]): increase the release of GLP-1

Compound: CCCCCCCCCCCC1=C(O)C(=O)C=C(O)C1=O [Embelin]
- GLP-1 (pmol/mg protein) (NCI-H716 cells; [1]): 83.55 pmol/mg protein

Compound: O=C(O[C@@H]1Cc2c(O)cc(O)cc2O[C@@H]1c1cc(O)c(O)c(O)c1)c1cc(O)c(O)c(O)c1 [Epigallocatechin gallate]
- GLP-1 (pmol/mg protein) (NCI-H716 cells; NCI-H716 cells, ligand concentration 1 μm, duplicates, control 58.47): 91.15 pmol/mg protein
- effect on release of GLP-1 from NCI-H716 cells (in words) (NCI-H716 cells; [2]): increase the release of GLP-1

Compound: CC1(C)[C@@H](O[C@H]2O[C@H](C(=O)O)[C@@H](O)[C@H](O)[C@H]2O[C@@H]2O[C@H](C(=O)O)[C@@H](O)[C@H](O)[C@H]2O)CC[C@]2(C)[C@H]3C(=O)C=C4[C@@H]5C[C@@](C)(C(=O)O)CC[C@]5(C)CC[C@@]4(C)[C@]3(C)CC[C@@H]12 [Glycyrrhizic acid ammonium salt]
- GLP-1 (pmol/mg protein) (NCI-H716 cells; [1]): 71.95 pmol/mg protein
- effect on release of GLP-1 from NCI-H716 cells (in words) (NCI-H716 cells; [2]): increase the release of GLP-1

Compound: CC(C)=CCC[C@]1(C)[C@@H](CC=C(C)C)C[C@@]2(CC=C(C)C)C(=O)[C@]1(C(=O)C(C)C)C(=O)C(CC=C(C)C)=C2O [Hyperforin]
- GLP-1 (pmol/mg protein) (NCI-H716 cells; NCI-H716 cells, ligand concentration 5 μg/ml, duplicates, control 58.47): 104.87 pmol/mg protein
- effect on release of GLP-1 from NCI-H716 cells (in words) (NCI-H716 cells; [2]): increase the release of GLP-1

Compound: NC(=S)Nc1ccccc1 [PTC, Phenylthiocarbamide]
- effect on GLP-1 release from STC-5 cells (in words) (STC-5 cells): large effect
- GLP-1 (pmol/mg protein) (NCI-H716 cells): 98.73 pmol/mg protein
- effect on release of GLP-1 from NCI-H716 cells (in words) (NCI-H716 cells): increase the release of GLP-1
- change of PYY levels versus saline gavaged rats (in words) (male Sprague-Dawley rats; 5 mM PTC in 5 ml saline by gastric gavage, 45 min): doubling
- PYY in the blood (male Sprague-Dawley rats; 5 mM PTC in 5 ml saline by gastric gavage, 45 min later, n=5, saline rats 71+/−35 pM): 154 ± 44 pM
- volume of fluid remaining in the stomachs (male Sprague-Dawley rats; at sacrifice 45 min after gavage of 5 ml, saline-treated rats less than 0.5 ml): 1 to 2 mL

Compound: CC(=O)c1c(O)c(C)c(O)c(Cc2c(O)c3c(c(C(=O)/C=C/c4ccccc4)c2O)OC(C)(C)C=C3)c1O [Rottlerin]
- GLP-1 (pmol/mg protein) (NCI-H716 cells; NCI-H716 cells, ligand concentration 0.05%, duplicates, control 58.47): 111.18 pmol/mg protein
- effect on release of GLP-1 from NCI-H716 cells (in words) (NCI-H716 cells; [2]): increase the release of GLP-1

Compound: C=C[C@H]1C[N@@]2CC[C@H]1C[C@H]2[C@H](O)c1ccnc2ccc(OC)cc12 [quinine]
- threshold for stimulation of bitter taste (bitter taste): 8 µM
